{"source": "patent US20110091560A1", "about": "“COMPOSITIONS OF NANOPARTICLES AND METHODS OF MAKING THE SAME” (The Burnham Institute for Medical Research, priority 2009, published 2011)", "origin": "cited, not measured here", "settings": "Log P, octanol and water", "note": "Counter-ions that a name gives are not always drawn. Like-named read-outs stand apart in the source and are kept apart here."}
{"smiles": "COc1cc([C@@H]2c3cc4c(cc3[C@@H](O[C@@H]3O[C@@H]5CO[C@@H](C)O[C@H]5[C@H](O)[C@H]3O)[C@H]3COC(=O)[C@H]23)OCO4)cc(OC)c1O", "note": "[etoposide]", "values": [{"measurement": "Partition Coefficient", "value": 0.06}]}
{"smiles": "O=C(CCCCCCC(=O)Nc1ccccc1)NO", "note": "[Vorinostat (SAHA), Vorinostat]", "values": [{"measurement": "Partition Coefficient", "value": 1.4}]}
{"smiles": "CC(C)(C#N)c1cc(Cn2cncn2)cc(C(C)(C)C#N)c1", "note": "[Anastrozole]", "values": [{"measurement": "Partition Coefficient", "value": 3.5}]}
{"smiles": "NC(=O)N1CCC(CC(=O)N2CCC([C@H]3c4ncc(Br)cc4CCc4cc(Cl)cc(Br)c43)CC2)CC1", "note": "[Lonafarnib]", "values": [{"measurement": "Partition Coefficient", "value": 3.1}]}
{"smiles": "C[C@]12CCC(=O)C(O)=C1CC[C@@H]1[C@@H]2CC[C@]2(C)C(=O)CC[C@@H]12", "note": "[Formestane]", "values": [{"measurement": "Partition Coefficient", "value": 3.1}]}
{"smiles": "C=C1C[C@@H]2[C@H](CC[C@]3(C)C(=O)CC[C@@H]23)[C@@]2(C)C=CC(=O)C=C12", "note": "[Exemestane]", "values": [{"measurement": "Partition Coefficient", "value": 3.8}]}
{"smiles": "Nc1ccn([C@@H]2O[C@H](CO)[C@@H](O)C2(F)F)c(=O)n1", "note": "[gemcitabine]", "values": [{"measurement": "Partition Coefficient", "value": "−1.4"}]}
{"smiles": "C[C@]12CC[C@@H]3c4ccc(O)cc4C[C@@H](CCCCCCCCC[S+]([O-])CCCC(F)(F)C(F)(F)F)[C@H]3[C@@H]1CC[C@@H]2O", "note": "(some centres unmarked) [Fulvestrant (SERD), Fulvestrant]", "values": [{"measurement": "Partition Coefficient", "value": 8.5}]}
{"smiles": "O=c1[nH]cc(F)c(=O)[nH]1", "note": "[Example 5-FU, 5-FU]", "values": [{"measurement": "Partition Coefficient", "value": "−0.6"}]}
{"smiles": "CO[C@H]1C[C@@H]2CC[C@@H](C)[C@@](O)(O2)C(=O)C(=O)N2CCCC[C@H]2C(=O)O[C@H]([C@H](C)C[C@@H]2CC[C@@H](OCCO)[C@H](OC)C2)CC(=O)[C@H](C)/C=C(\\C)[C@@H](O)[C@@H](OC)C(=O)[C@H](C)C[C@H](C)/C=C/C=C/C=C/1C", "note": "[Everolimus]", "values": [{"measurement": "Partition Coefficient", "value": 6.8}]}
{"smiles": "CC(C)C[C@H](NC(=O)[C@H](Cc1ccccc1)NC(=O)c1cnccn1)B(O)O", "note": "[Bortezomib]", "values": [{"measurement": "Partition Coefficient", "value": "−0.4"}]}
{"smiles": "Nc1ccccc1NC(=O)c1ccc(CNc2nccc(-c3cccnc3)n2)cc1", "note": "[Mocetinostat]", "values": [{"measurement": "Partition Coefficient", "value": 2.7}]}
{"smiles": "O=C(c1ccc(OCCN2CCCCC2)cc1)c1c(-c2ccc(O)cc2)sc2cc(O)ccc12", "note": "[Raloxifene]", "values": [{"measurement": "Partition Coefficient", "value": 6.3}]}
{"smiles": "CO[C@H]1C[C@@H]2CC[C@@H](C)[C@@](O)(O2)C(=O)C(=O)N2CCCC[C@H]2C(=O)O[C@H]([C@H](C)C[C@@H]2CC[C@@H](O)[C@H](OC)C2)CC(=O)[C@H](C)/C=C(\\C)[C@@H](O)[C@@H](OC)C(=O)[C@H](C)C[C@H](C)/C=C/C=C/C=C/1C", "note": "[Rapamycin]", "values": [{"measurement": "Partition Coefficient", "value": 6.9}]}
{"smiles": "COc1cc2ncnc(Nc3ccc(F)c(Cl)c3)c2cc1OCCCN1CCOCC1", "note": "[Gefitinib]", "values": [{"measurement": "Partition Coefficient", "value": 4.5}]}
{"smiles": "C[C@]1(c2nc3c(C(N)=O)cccc3[nH]2)CCCN1", "note": "[Veliparib (ABT-888), Veliparib]", "values": [{"measurement": "Partition Coefficient", "value": 1}]}
{"smiles": "CC(=O)O[C@H]1C(=O)[C@@]2(C)[C@H]([C@H](OC(=O)c3ccccc3)[C@]3(O)C[C@H](OC(=O)[C@H](O)[C@@H](NC(=O)c4ccccc4)c4ccccc4)C(C)=C1C3(C)C)[C@]1(OC(C)=O)CO[C@@H]1C[C@@H]2O", "note": "[Paclitaxel]", "values": [{"measurement": "Partition Coefficient", "value": 3.6}, {"measurement": "Partition Coefficient", "setting": "listed as paclitaxel", "value": "about 3.6"}]}
{"smiles": "CN(Cc1cnc2nc(N)nc(N)c2n1)c1ccc(C(=O)N[C@@H](CCC(=O)O)C(=O)O)cc1", "note": "[methotrexate]", "values": [{"measurement": "Partition Coefficient", "value": "−0.7"}]}
{"smiles": "CS(=O)(=O)CCNCc1ccc(-c2ccc3ncnc(Nc4ccc(OCc5cccc(F)c5)c(Cl)c4)c3c2)o1", "note": "[Lapatinib]", "values": [{"measurement": "Partition Coefficient", "value": 5.1}]}
{"smiles": "CCCC(CCC)C(=O)O", "note": "[Valproic acid]", "values": [{"measurement": "Partition Coefficient", "value": 2.6}]}
{"smiles": "O=C(/C=C/c1ccc(CN(CCO)CCc2c[nH]c3ccccc23)cc1)NO", "note": "[Dacinostat]", "values": [{"measurement": "Partition Coefficient", "value": 2.1}]}
{"smiles": "O=P(O)(O)C(Sc1ccc(Cl)cc1)P(=O)(O)O", "note": "[Tiludronate]", "values": [{"measurement": "Partition Coefficient", "value": 2.3}]}
{"smiles": "O=P1(N(CCCl)CCCl)NCCCO1", "note": "(centres unmarked) [cyclosphosphamide]", "values": [{"measurement": "Partition Coefficient", "value": 0.3}]}
{"smiles": "Cc1nc(Nc2ncc(C(=O)Nc3c(C)cccc3Cl)s2)cc(N2CCN(CCO)CC2)n1", "note": "[Dasatinib]", "values": [{"measurement": "Partition Coefficient", "value": 3.9}]}
{"smiles": "CCCCCN(C)CCC(O)(P(=O)(O)O)P(=O)(O)O", "note": "[Ibandronate sodium]", "values": [{"measurement": "Partition Coefficient", "value": "−4.4"}]}
{"smiles": "C=CCNC1=C2C[C@@H](C)C[C@H](OC)[C@H](O)[C@@H](C)/C=C(\\C)[C@H](OC(N)=O)[C@@H](OC)/C=C\\C=C(/C)C(=O)NC(=CC1=O)C2=O", "note": "[Example 17-AAG, 17-AAG]", "values": [{"measurement": "Partition Coefficient", "value": 3.4}]}
{"smiles": "O=P(O)(O)C(Cl)(Cl)P(=O)(O)O", "note": "[Clodronate]", "values": [{"measurement": "Partition Coefficient", "value": "−5.6"}]}
{"smiles": "NCCC(O)(P(=O)(O)O)P(=O)(O)O", "note": "[Pamidronate]", "values": [{"measurement": "Partition Coefficient", "value": "−7"}]}
{"smiles": "CN(C)CCOc1ccc(/C(=C(/CCCl)c2ccccc2)c2ccccc2)cc1", "note": "[Toremifene]", "values": [{"measurement": "Partition Coefficient", "value": 5.7}]}
{"smiles": "N#Cc1ccc(C(c2ccc(C#N)cc2)n2cncn2)cc1", "note": "[Letrozole]", "values": [{"measurement": "Partition Coefficient", "value": 3.1}]}
{"smiles": "Nc1nc(F)nc2c1ncn2[C@@H]1O[C@H](CO)[C@@H](O)[C@@H]1O", "note": "[fludarabine]", "values": [{"measurement": "Partition Coefficient", "value": "−1.3"}]}
{"smiles": "CC(O)(P(=O)(O)O)P(=O)(O)O", "note": "[Etidronate]", "values": [{"measurement": "Partition Coefficient", "value": "−6"}]}
{"smiles": "O=P(O)(O)C(O)(Cc1cccnc1)P(=O)(O)O", "note": "[Risedronate]", "values": [{"measurement": "Partition Coefficient", "value": "−5.8"}]}
{"smiles": "Nc1ccccc1NC(=O)c1ccc(CNC(=O)OCc2cccnc2)cc1", "note": "[Entinostat]", "values": [{"measurement": "Partition Coefficient", "value": 3.1}]}
{"smiles": "C#Cc1cccc(Nc2ncnc3cc(OCCOC)c(OCCOC)cc23)c1", "note": "[Erlotinib HCl]", "values": [{"measurement": "Partition Coefficient", "value": 3.9}]}
{"smiles": "CC1=C(CO)C2=C(C)C3(CC3)[C@@](C)(O)C(=O)C2=C1", "note": "[Irofulven]", "values": [{"measurement": "Partition Coefficient", "value": 4.7}]}
{"smiles": "Cc1[nH]c2ccccc2c1CCNCc1ccc(/C=C/C(=O)NO)cc1", "note": "[Panobinostat]", "values": [{"measurement": "Partition Coefficient", "value": 2.8}]}
{"smiles": "CO[C@H]1C[C@@H]2CC[C@@H](C)[C@@](O)(O2)C(=O)C(=O)N2CCCC[C@H]2C(=O)O[C@H]([C@H](C)C[C@@H]2CC[C@@H](OC(=O)C(C)(CO)CO)[C@H](OC)C2)CC(=O)[C@H](C)/C=C(\\C)[C@@H](O)[C@@H](OC)C(=O)[C@H](C)C[C@H](C)/C=C/C=C/C=C/1C", "note": "[Temsirolimus]", "values": [{"measurement": "Partition Coefficient", "value": 6.8}]}
{"smiles": "O=C(/C=C/c1cccc(S(=O)(=O)Nc2ccccc2)c1)NO", "note": "[Belinostat]", "values": [{"measurement": "Partition Coefficient", "value": 1}]}
{"smiles": "Cc1nc(N)nc(N)c1-c1ccc(Cl)c(Cl)c1", "note": "[Metoprine]", "values": [{"measurement": "Partition Coefficient", "value": 2.6}]}
